The source of these data is patent US9975885B2, “Broad-spectrum non-covalent coronavirus protease inhibitors” (priority 2016, dated 2018).

Marks after values point to notes of the source that are not given here. Where only a bound is given, the exact number is not on record here.

In experiment [1] the target is PEDV-3CL^pro (Porcine epidemic diarrhea virus (strain CV777) (PEDV), UniProt P0C6Y4). The experiment can be described thus: biochemical.
For experiment [2], the target named is HKU5-3CL^pro (Bat coronavirus HKU5 (BtCoV) (BtCoV/HKU5/2004), UniProt P0C6W4). The format is biochemical.
Sequence of HKU5-3CL^pro (P0C6W4 3339-3644 limits assumed): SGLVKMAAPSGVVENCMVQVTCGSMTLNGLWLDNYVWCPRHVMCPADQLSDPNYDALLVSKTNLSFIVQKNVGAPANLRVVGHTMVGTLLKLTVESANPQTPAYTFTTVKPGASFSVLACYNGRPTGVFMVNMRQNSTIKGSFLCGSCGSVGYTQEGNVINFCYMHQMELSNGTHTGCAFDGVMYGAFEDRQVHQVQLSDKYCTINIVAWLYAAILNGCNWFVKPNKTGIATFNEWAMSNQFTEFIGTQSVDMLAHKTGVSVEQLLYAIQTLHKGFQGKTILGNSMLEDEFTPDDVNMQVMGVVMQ
The target in experiment [3] is FIPV-3CL^pro (Feline coronavirus (strain FIPV WSU-79/1146) (FCoV), UniProt Q98VG9). In words: biochemical.
Sequence of FIPV-3CL^pro (Q98VG9 2904-3205 limits assumed): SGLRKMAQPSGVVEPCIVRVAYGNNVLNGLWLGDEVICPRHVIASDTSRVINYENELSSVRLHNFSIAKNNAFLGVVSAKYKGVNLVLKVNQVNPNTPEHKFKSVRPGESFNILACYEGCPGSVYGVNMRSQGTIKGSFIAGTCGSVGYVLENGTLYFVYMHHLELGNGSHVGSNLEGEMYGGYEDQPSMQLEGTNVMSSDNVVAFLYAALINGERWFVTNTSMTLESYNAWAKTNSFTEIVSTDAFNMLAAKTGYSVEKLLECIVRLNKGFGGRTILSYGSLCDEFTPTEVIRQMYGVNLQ
The target in experiment [4] is HKU4-3CL^pro (Bat coronavirus HKU4 (BtCoV) (BtCoV/HKU4/2004), UniProt P0C6W3). The format is biochemical.
Sequence of HKU4-3CL^pro (P0C6W3 3292-3597 limits assumed): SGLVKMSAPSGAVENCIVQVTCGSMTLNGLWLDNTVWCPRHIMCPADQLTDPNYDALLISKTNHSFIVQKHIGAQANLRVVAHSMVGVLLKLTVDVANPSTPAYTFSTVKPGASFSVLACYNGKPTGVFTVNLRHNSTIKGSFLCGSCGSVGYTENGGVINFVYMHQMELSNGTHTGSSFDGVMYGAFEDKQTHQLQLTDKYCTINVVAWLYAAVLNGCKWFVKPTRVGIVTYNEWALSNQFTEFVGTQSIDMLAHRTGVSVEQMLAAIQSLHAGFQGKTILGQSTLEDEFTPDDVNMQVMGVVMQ
Experiment [5] has as its target SARS-3CL^pro (Severe acute respiratory syndrome coronavirus (SARS-CoV), UniProt P0C6X7). It counts as biochemical.
The subject of experiment [6] is Ten CoV 3CL^pro's (FIPV-, PEDV-, NL63-, HKU1-, OC43-, SARS-, HKU4-, HKU5-, HKU9-, IBV-3CL^pro). It counts as biochemical, coronaviruses (α-, β-, γ-CoV).
For experiment [7], the target named is HKU1-3CL^pro (Human coronavirus HKU1 (isolate N1) (HCoV-HKU1), UniProt P0C6X2). In words: biochemical.
Sequence of HKU1-3CL^pro (P0C6X2 3335-3637 limits assumed): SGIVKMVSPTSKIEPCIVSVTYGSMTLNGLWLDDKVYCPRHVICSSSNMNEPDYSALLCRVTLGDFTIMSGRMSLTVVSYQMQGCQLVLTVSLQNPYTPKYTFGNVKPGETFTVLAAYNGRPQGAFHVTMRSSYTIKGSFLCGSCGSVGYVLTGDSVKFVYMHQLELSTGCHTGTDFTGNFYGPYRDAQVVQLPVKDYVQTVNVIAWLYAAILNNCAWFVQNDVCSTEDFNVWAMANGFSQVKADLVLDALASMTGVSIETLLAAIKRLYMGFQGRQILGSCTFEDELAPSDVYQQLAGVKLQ
The target of experiment [8] is NL63-3CL^pro (Human coronavirus NL63 (HCoV-NL63), UniProt P0C6X5). The experiment can be described thus: biochemical.
Sequence of NL63-3CL^pro (P0C6X5 2940-3242 limits assumed): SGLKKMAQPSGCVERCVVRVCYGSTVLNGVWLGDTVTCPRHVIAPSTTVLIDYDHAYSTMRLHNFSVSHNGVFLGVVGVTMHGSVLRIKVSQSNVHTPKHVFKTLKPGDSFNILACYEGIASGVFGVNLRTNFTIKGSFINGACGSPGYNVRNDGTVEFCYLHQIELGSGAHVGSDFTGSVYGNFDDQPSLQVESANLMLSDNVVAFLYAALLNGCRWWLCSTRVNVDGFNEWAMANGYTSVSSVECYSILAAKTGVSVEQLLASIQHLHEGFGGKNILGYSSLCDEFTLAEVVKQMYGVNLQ
Experiment [9] deals with OC43-3CL^pro (Human coronavirus OC43 (HCoV-OC43), UniProt P0C6X6). The format is biochemical.
Sequence of OC43-3CL^pro (P0C6X6 3247-3549 limits assumed): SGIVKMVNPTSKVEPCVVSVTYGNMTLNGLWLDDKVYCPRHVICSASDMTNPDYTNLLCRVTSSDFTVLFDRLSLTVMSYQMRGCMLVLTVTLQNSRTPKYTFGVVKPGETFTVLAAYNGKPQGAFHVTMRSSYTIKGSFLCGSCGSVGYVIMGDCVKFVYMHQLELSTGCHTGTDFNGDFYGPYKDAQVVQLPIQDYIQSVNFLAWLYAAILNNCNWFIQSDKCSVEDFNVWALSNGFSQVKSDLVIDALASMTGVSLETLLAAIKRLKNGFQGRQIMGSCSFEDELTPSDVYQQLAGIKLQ

Sequence of PEDV-3CL^pro (P0C6Y4 2998-3299 limits assumed): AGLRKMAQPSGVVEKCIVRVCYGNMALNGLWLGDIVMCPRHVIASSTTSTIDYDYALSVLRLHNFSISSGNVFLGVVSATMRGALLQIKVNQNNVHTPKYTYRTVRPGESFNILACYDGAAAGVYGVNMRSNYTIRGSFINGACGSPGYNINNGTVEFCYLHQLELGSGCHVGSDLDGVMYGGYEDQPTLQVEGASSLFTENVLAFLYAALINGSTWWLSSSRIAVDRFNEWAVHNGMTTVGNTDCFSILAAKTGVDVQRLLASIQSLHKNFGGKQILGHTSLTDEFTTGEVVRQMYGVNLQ

Turning to `CC(C)(C)NC(=O)C(c1cccnc1)N(C(=O)c1c[nH]cn1)c1ccc(C2CCCC2)cc1` (centres unmarked) [Compound 41, N-(2-(tert-butylamino)-2-oxo-1-(pyridin-3-yl)ethyl)-N-(4-cyclopentylphenyl)-1H-imidazole-4-carboxamide], the IC50 (usually the point on the concentration scale where inhibition reaches its midpoint) in experiment [1] is 10.5 ± 0.9 µM; in experiment [2], 19.1 ± 2 µM; in experiment [3] it was 18.7 ± 2 µM; in experiment [4] it was 19.8 ± 1.5 µM; in [5], 5.3 ± 0.5 µM; in [7] it was 5 ± 0.6 µM. Besides, the “Gini Coefficient” value in experiment [6] amounted to 0.26. For the same compound, the “Score (performance metric score)” value in [6] is on record as 6.2.
Take `CC(C)(C)OC(=O)CNC(=O)C(c1ccsc1)N(C(=O)Cn1nnc2ccccc21)c1ccc(NC(=O)C2CC2)cc1` (centres unmarked) [Compound 64, tert-butyl (2-(2-(1H-benzo[d][1,2,3]triazol-1-yl)-N-(4-(cyclopropanecarboxamido)phenyl)acetamido)-2-(thiophen-3-yl)acetyl)glycinate]: the IC50 in experiment [1] came to 8.7 ± 1.4 µM; in experiment [2] it was 2 ± 0.2 µM; in [3], 11.7 ± 1.2 µM; in experiment [4] it was 2.1 ± 0.2 µM; in [5], 6.3 ± 0.8 µM; in experiment [8] it was 8.7 ± 0.8 µM. In addition, the IC50 is 6.5 ± 0.9 µM in [7] and 4.5 ± 0.3 µM in experiment [9]. Also, the “number of 3CL^pro's inhibited” value in experiment [6] is on record as “eight of the ten”.
On to `CC(C)(C)NC(=O)C(c1cccnc1)N(C(=O)c1c[nH]cn1)c1ccc(C2CCCCC2)cc1` (centres unmarked) [Compound 42, N-(2-(tert-butylamino)-2-oxo-1-(pyridin-3-yl)ethyl)-N-(4-cyclohexylphenyl)-1H-imidazole-4-carboxamide], for which the IC50 amounted to 26.2 ± 2.4 µM in experiment [1]; 4.3 ± 1 µM in experiment [2]; 39.7 ± 5.7 µM in experiment [3]; 27 ± 4.1 µM in experiment [4]; 6.3 ± 0.5 µM in experiment [5]; 11.6 ± 1.5 µM in experiment [7]. The compound further came in with an IC50 in experiment [9] of 63.1 ± 12 µM. In addition, the “Gini Coefficient” value in experiment [6] is given as 0.18. For the same compound, the “Score (performance metric score)” value in experiment [6] is 6.6.
For `CC(C)(C)NC(=O)C(c1cccnc1)N(C(=O)c1c[nH]cn1)c1ccc(C2CC2)cc1` (centres unmarked) [Compound 39, N-(2-(tert-butylamino)-2-oxo-1-(pyridin-3-yl)ethyl)-N-(4-cyclopropylphenyl)-1H-imidazole-4-carboxamide], the IC50 came to 17.6 ± 2.6 µM in experiment [1]; 15.7 ± 2 µM in [2]; 16.6 ± 1.7 µM in [4]; 12.7 ± 2.5 µM in experiment [5]; 2 ± 1.1 µM in [7]. Moreover, the “Gini Coefficient” value in experiment [6] turned out to be 0.19. Also, the “Score (performance metric score)” value in experiment [6] is on record as 7.6. For the same compound, the “number of 3CL^pro's inhibited” value in experiment [6] is on record as “five out of ten”.
In the case of `CC(C)C(=O)Nc1ccc(N(C(=O)Cn2nnc3ccccc32)C(C(=O)NCc2cccnc2)c2cccc(F)c2)cc1` (centres unmarked) [Compound 6, N-(4-(2-(1H-benzo[d][1,2,3]triazol-1-yl)-N-(1-(3-fluorophenyl)-2-oxo-2-((pyridin-3-ylmethyl)amino)ethyl)acetamido)phenyl)isobutyramide], the IC50 in [1] came out at 8.3 ± 1.2 µM; in experiment [2], 2.5 ± 0.2 µM; in experiment [3], 13.8 ± 1.1 µM; in experiment [4] it was 2 ± 0.1 µM; in experiment [5] it was 5.5 ± 0.7 µM; in experiment [7], 6.8 ± 1.9 µM. Further, the IC50 in [9] was determined as 10 ± 1.9 µM. For the same compound, the inhibition at 100 µM in experiment [1] (read-out: inhibition of PEDV-3CL^pro) and in [7] (read-out: inhibition of HKU1-3CL^pro) was greater than 50% throughout.
For the compound `O=C(Nc1ccc(N(C(=O)Cn2nnc3ccccc32)C(C(=O)NC2CCCCC2)c2ccsc2)cc1)C1CC1` (centres unmarked) [Compound 67, N-(4-(2-(1H-benzo[d][1,2,3]triazol-1-yl)-N-(2-(cyclohexylamino)-2-oxo-1-(thiophen-3-yl)ethyl)acetamido)phenyl)cyclopropanecarboxamide], in [2], the IC50 was 0.6 ± 0.1 µM and the “IC50 HKU5” value was “sub-micromolar”. Also, in [4], the IC50 turned out to be 0.7 ± 0.1 µM and the “IC50 HKU4” value is listed as “sub-micromolar”. In experiment [5], the “inhibition of SARS-3CL^pro” value is “not tolerated”. Besides, in experiment [6], the “Gini Coefficient” value was determined as 0.39 and the “Score (performance metric score)” value is recorded as 8.3*. The “inhibition of NL63-3CL^pro” value in experiment [8] is given as “not tolerated”. The “inhibition of OC43-3CL^pro” value in experiment [9] was “not tolerated”.
Regarding `O=C(Nc1ccc(N(C(=O)Cn2nnc3ccccc32)C(C(=O)NC2CCCC2)c2ccsc2)cc1)C1CC1` (centres unmarked) [Compound 33, N-(4-(2-(1H-benzo[d][1,2,3]triazol-1-yl)-N-(2-(cyclopentylamino)-2-oxo-1-(thiophen-3-yl)ethyl)acetamido)phenyl)cyclopropanecarboxamide], the IC50 in experiment [2] is 0.6 ± 0.1 µM; in experiment [4] it was 0.5 ± 0.05 µM; in experiment [5] it was 4.2 ± 0.6 µM; in experiment [8] it was 3.7 ± 0.6 µM; in [9] it was 7.3 ± 0.8 µM. Moreover, the “Gini Coefficient” value in [6] worked out at 0.32. In experiment [6], the “Score (performance metric score)” value is recorded as 5.7*. In addition, the “inhibition of HKU1-3CL^pro” value in experiment [7] is given as “not tolerated”.
Consider `O=C(Nc1ccc(N(C(=O)Cn2nnc3ccccc32)C(C(=O)NCc2cccnc2)c2ccsc2)cc1)C1CC1` (centres unmarked) [Compound 34, N-(4-(2-(1H-benzo[d][1,2,3]triazol-1-yl)-N-(2-oxo-2-((pyridin-3-ylmethyl)amino)-1-(thiophen-3-yl)ethyl)acetamido)phenyl)cyclopropanecarboxamide], for which the IC50 in experiment [2] stood at 2.1 ± 0.2 µM; in experiment [3], 27.5 ± 3.8 µM; in experiment [5] it was 9.9 ± 0.9 µM; in experiment [8] it was 15.6 ± 1.3 µM; in experiment [7], 7.4 ± 1.1 µM; in [9], 8.9 ± 0.5 µM.
Turning to `O=C(Nc1ccc(N(C(=O)Cn2nnc3ccccc32)C(C(=O)NCc2ccccc2)c2ccsc2)cc1)C1CC1` (centres unmarked) [Compound 37, N-(4-(2-(1H-benzo[d][1,2,3]triazol-1-yl)-N-(2-(benzylamino)-2-oxo-1-(thiophen-3-yl)ethyl)acetamido)phenyl)cyclopropanecarboxamide], the IC50 was 0.8 ± 0.1 µM in experiment [2]; 0.6 ± 0.04 µM in experiment [4]; 2 ± 0.2 µM in [5]; 3 ± 0.3 µM in experiment [8]; 2.2 ± 0.2 µM in experiment [9]. Besides, in [6], the “Score (performance metric score)” value is 5.3*.
Consider `COc1cccc(C(C(=O)NCc2ccccc2)N(C(=O)Cn2nnc3ccccc32)c2ccc(NC(=O)C(C)C)cc2)c1` (centres unmarked) [Compound 14, N-(4-(2-(1H-benzo[d][1,2,3]triazol-1-yl)-N-(2-(benzylamino)-1-(3-methoxyphenyl)-2-oxoethyl)acetamido)phenyl)isobutyramide], for which, in experiment [2], half-maximal inhibition (IC50) was put at 2.2 ± 0.3 µM and the “IC50 HKU5” value is on record as “low micromolar”. In [4], the IC50 turned out to be 2.4 ± 0.2 µM and the “IC50 HKU4” value is recorded as “low micromolar”. For the same compound, in experiment [5], the IC50 came to 3.5 ± 0.4 µM and the “IC50 SARS” value was “low micromolar”. Besides, in [6], the “Gini Coefficient” value came out at 0.33 and the “Score (performance metric score)” value is given as 6.6. For the same compound, in experiment [7], the IC50 is 1.8 ± 0.3 µM and the “IC50 HKU1” value was “low micromolar”.
`CC(C)NC(=O)C(c1ccsc1)N(C(=O)Cn1nnc2ccccc21)c1ccc(NC(=O)C2CC2)cc1` (centres unmarked) [Compound 29, N-(4-(2-(1H-benzo[d][1,2,3]triazol-1-yl)-N-(2-(isopropylamino)-2-oxo-1-(thiophen-3-yl)ethyl)acetamido)phenyl)cyclopropanecarboxamide]: the IC50 in experiment [2] stood at 2.4 ± 0.3 µM; in experiment [4] it was 2 ± 0.2 µM; in experiment [5] it was 8.3 ± 1.5 µM; in [8], 8.1 ± 1.6 µM; in experiment [9] it was 11.1 ± 1.2 µM. Further, the “Score (performance metric score)” value in experiment [6] is recorded as 6.3*.
Turning to `O=C(Nc1ccc(N(C(=O)Cn2nnc3ccccc32)C(C(=O)NC2CC2)c2ccsc2)cc1)C1CC1` (centres unmarked) [Compound 32, N-(4-(2-(1H-benzo[d][1,2,3]triazol-1-yl)-N-(2-(cyclopropylamino)-2-oxo-1-(thiophen-3-yl)ethyl)acetamido)phenyl)cyclopropanecarboxamide], the IC50 was found to be 0.9 ± 0.1 µM in experiment [2]; 0.8 ± 0.1 µM in experiment [4]; 8.2 ± 1.5 µM in experiment [5]; 14.8 ± 1.2 µM in experiment [8]; 9.8 ± 1.8 µM in [7]; 2.8 ± 0.2 µM in experiment [9]. Besides, in experiment [6], the “Score (performance metric score)” value is 5.0*. Further, the “number of 3CL^pro's inhibited” value in experiment [6] is on record as “six”.
For `CC(C)(C)NC(=O)C(c1ccsc1)N(C(=O)Cn1cnc2ccccc21)c1ccc(NC(=O)C2CC2)cc1` (centres unmarked) [Compound 27, N-(4-(2-(1H-benzo[d]imidazol-1-yl)-N-(2-(tert-butylamino)-2-oxo-1-(thiophen-3-yl)ethyl)acetamido)phenyl)cyclopropanecarboxamide], the IC50 in experiment [2] was found to be 9.7 ± 1.6 µM; in experiment [4], 9.6 ± 1 µM; in experiment [9], 16.3 ± 2.1 µM. Moreover, in experiment [6], the “Gini Coefficient” value is recorded as 0.37. Further, the “Score (performance metric score)” value in experiment [6] turned out to be 11.0.
For the compound `CC(C)C(=O)Nc1ccc(N(C(=O)Cn2cnc3ccccc32)C(C(=O)NCc2ccccc2)c2cccc(F)c2)cc1` (centres unmarked) [Compound 19, N-(4-(2-(1H-benzo[d]imidazol-1-yl)-N-(2-(benzylamino)-1-(3-fluorophenyl)-2-oxoethyl)acetamido)phenyl)isobutyramide], the IC50 in [2] came out at 2.9 ± 0.3 µM; in experiment [4], 2.5 ± 0.2 µM; in experiment [7], 3.7 ± 0.6 µM; in experiment [9], 3.9 ± 0.4 µM. The “Gini Coefficient” value in [6] was 0.31. Besides, the “Score (performance metric score)” value in experiment [6] turned out to be 6.8.
